Measured values taken from PubChem BioAssay (NCI).
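Interpolation was linear, between the two tested concentrations surrounding the appropriate level; five concentrations were tested over 48 hours in 96-well plates. The concentration for full growth arrest is given as TGI.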

Columns and labels:
Test in all cases: inhibition of tumour cell growth, NCI panel, 48 h
[1] = test system: BT-549 breast
[2] = test system: MDA-MB-435
[3] = test system: RXF 393 renal
[4] = test system: MCF7 breast
[5] = test system: SNB-19 CNS
[6] = test system: EKVX NSCLC
[7] = test system: NCI/ADR-RES ovarian
[8] = test system: PC-3 prostate
[9] = test system: OVCAR-5 ovarian
[10] = test system: SK-OV-3 ovarian
[11] = test system: NCI-H460 lung
[12] = test system: SF-539 CNS
[13] = test system: MOLT-4 leukemia
[14] = test system: SF-268 CNS
[15] = test system: U251 CNS
[16] = test system: 786-0 renal
[17] = test system: HCT-15 colon
[18] = test system: OVCAR-3 ovarian
[19] = test system: SR leukemia
[20] = test system: NCI-H23 lung
[21] = test system: HS 578T breast
[22] = test system: OVCAR-8 ovarian
[23] = test system: OVCAR-4 ovarian
[24] = test system: HT29 colon
[25] = test system: A549 NSCLC
[26] = test system: HOP-92 NSCLC
[27] = test system: T-47D breast
[28] = test system: LOX IMVI melanoma
[29] = test system: UO-31 renal
[30] = test system: RPMI-8226 leukemia
[31] = test system: MALME-3M melanoma
[32] = test system: HOP-62 NSCLC
[33] = test system: CCRF-CEM leukemia
[34] = test system: SK-MEL-5 melanoma
[35] = test system: UACC-257 melanoma
[36] = test system: M14 melanoma
[37] = test system: SK-MEL-28 melanoma
[38] = test system: MDA-N
[39] = test system: KM12 colon
[40] = test system: SF-295 CNS
[41] = test system: UACC-62 melanoma
[42] = test system: HCC-2998 colon
[43] = test system: CAKI-1 renal
[44] = test system: NCI-H226 lung
[45] = test system: SN12C renal
[46] = test system: NCI-H522 lung
[47] = test system: MDA-MB-231 breast
[48] = test system: DU-145 prostate
[49] = test system: TK-10 renal
[50] = test system: SW-620 colon
[51] = test system: IGROV1 ovarian
[52] = test system: A498 renal
[53] = test system: SK-MEL-2 melanoma
[54] = test system: ACHN renal
[55] = test system: HL-60(TB) leukemia
[56] = test system: SNB-75 CNS
[57] = test system: K-562 leukemia
[58] = test system: HCT-116 colon
[59] = test system: COLO 205 colon

CC1(C)C2CCC1(CS(=O)(=O)Nc1ccccc1)C(=O)C2 (stereo not given)
TGI [1]: > 100 µM | TGI [2]: > 100 µM | TGI [3]: > 100 µM | TGI [4]: > 100 µM | TGI [5]: > 100 µM | TGI [6]: > 100 µM | TGI [7]: > 100 µM | TGI [8]: > 100 µM | TGI [9]: > 100 µM | TGI [10]: > 100 µM | TGI [11]: > 100 µM | TGI [12]: > 100 µM | TGI [13]: > 100 µM | TGI [14]: > 100 µM | TGI [15]: > 100 µM | TGI [16]: > 100 µM | TGI [17]: > 100 µM | TGI [18]: > 100 µM | TGI [19]: > 100 µM | TGI [20]: > 100 µM | TGI [21]: > 100 µM | TGI [22]: > 100 µM | TGI [23]: > 100 µM | TGI [24]: > 100 µM | TGI [25]: > 100 µM | TGI [26]: > 100 µM | TGI [27]: > 100 µM | TGI [28]: > 100 µM | TGI [29]: > 100 µM | TGI [30]: > 100 µM | TGI [31]: > 100 µM | TGI [32]: > 100 µM | TGI [33]: > 100 µM | TGI [34]: > 100 µM | TGI [35]: > 100 µM | TGI [36]: > 100 µM | TGI [37]: > 100 µM | TGI [38]: > 100 µM | TGI [39]: > 100 µM | TGI [40]: > 100 µM | TGI [41]: > 100 µM | TGI [42]: > 100 µM | TGI [43]: > 100 µM | TGI [44]: > 100 µM | TGI [45]: > 100 µM | TGI [46]: > 100 µM | TGI [47]: > 100 µM | TGI [48]: > 100 µM | TGI [49]: > 100 µM | TGI [50]: > 100 µM | TGI [51]: > 100 µM | TGI [52]: > 100 µM | TGI [53]: > 100 µM | TGI [54]: > 100 µM | TGI [55]: > 100 µM | TGI [56]: > 100 µM | TGI [57]: > 100 µM | TGI [58]: > 100 µM | TGI [59]: > 100 µM

C=CCNC1=C2C[C@@H](C)C[C@@H](OC)C(OC(=O)CCCN(C)C)[C@H](C)/C=C(\C)[C@@H](OC(N)=O)[C@H](OC)/C=C\C=C(/C)C(=O)NC(=CC1=O)C2=O (stereo not given in full)
TGI [1]: 27.6 µM | TGI [2]: 26 µM | TGI [3]: 18.6 µM | TGI [4]: 12.1 µM | TGI [5]: 28.9 µM | TGI [6]: 26.1 µM | TGI [7]: 52.1 µM | TGI [8]: 17.2 µM | TGI [9]: 28.5 µM | TGI [10]: 12.6 µM | TGI [11]: 13.9 µM | TGI [12]: 19.3 µM | TGI [13]: 39.1 µM | TGI [14]: 27.6 µM | TGI [15]: 26.6 µM | TGI [16]: 24.8 µM | TGI [17]: 19.4 µM | TGI [18]: 11.7 µM | TGI [19]: 8.97 µM | TGI [20]: 20.8 µM | TGI [21]: 41.7 µM | TGI [22]: 16 µM | TGI [23]: 26.3 µM | TGI [24]: 12.1 µM | TGI [25]: 14.6 µM | TGI [26]: 34.9 µM | TGI [27]: 24.7 µM | TGI [28]: 21.7 µM | TGI [29]: 26.6 µM | TGI [30]: 44.3 µM | TGI [31]: 14.4 µM | TGI [32]: 21.5 µM | TGI [33]: 31.3 µM | TGI [34]: 8.73 µM | TGI [35]: 27.5 µM | TGI [36]: 20.7 µM | TGI [37]: 27.4 µM | TGI [38]: 19.8 µM | TGI [39]: 14.6 µM | TGI [40]: 20.5 µM | TGI [41]: 26 µM | TGI [42]: 17.6 µM | TGI [43]: 25.2 µM | TGI [44]: 29.4 µM | TGI [45]: 12.6 µM | TGI [46]: 20.5 µM | TGI [47]: 17.5 µM | TGI [48]: 18.1 µM | TGI [49]: 25.1 µM | TGI [50]: 16.9 µM | TGI [51]: 21.7 µM | TGI [52]: 26.9 µM | TGI [53]: 25.5 µM | TGI [54]: 20.6 µM | TGI [55]: 20.2 µM | TGI [56]: 22.9 µM | TGI [57]: > 100 µM | TGI [58]: 20.4 µM | TGI [59]: 6.5 µM

COCn1c2ccc(OC(C)=O)cc2c2c(=O)oc(C)nc21
TGI [1]: > 100 µM | TGI [2]: > 100 µM | TGI [3]: > 100 µM | TGI [4]: > 100 µM | TGI [5]: > 100 µM | TGI [6]: > 100 µM | TGI [7]: > 100 µM | TGI [8]: > 100 µM | TGI [9]: > 100 µM | TGI [10]: > 100 µM | TGI [11]: > 100 µM | TGI [12]: > 100 µM | TGI [13]: > 100 µM | TGI [14]: > 100 µM | TGI [15]: > 100 µM | TGI [16]: > 100 µM | TGI [17]: > 100 µM | TGI [19]: > 100 µM | TGI [20]: > 100 µM | TGI [21]: > 100 µM | TGI [22]: > 100 µM | TGI [23]: > 100 µM | TGI [24]: > 100 µM | TGI [25]: > 100 µM | TGI [26]: > 100 µM | TGI [27]: > 100 µM | TGI [28]: > 100 µM | TGI [29]: > 100 µM | TGI [30]: > 100 µM | TGI [31]: > 100 µM | TGI [32]: > 100 µM | TGI [33]: > 100 µM | TGI [34]: > 100 µM | TGI [35]: > 100 µM | TGI [36]: > 100 µM | TGI [37]: > 100 µM | TGI [38]: > 100 µM | TGI [39]: > 100 µM | TGI [40]: > 100 µM | TGI [41]: > 100 µM | TGI [42]: > 100 µM | TGI [43]: > 100 µM | TGI [44]: > 100 µM | TGI [45]: > 100 µM | TGI [46]: > 100 µM | TGI [47]: > 100 µM | TGI [48]: > 100 µM | TGI [49]: > 100 µM | TGI [50]: > 100 µM | TGI [51]: > 100 µM | TGI [52]: > 100 µM | TGI [53]: > 100 µM | TGI [54]: > 100 µM | TGI [55]: > 100 µM | TGI [56]: > 100 µM | TGI [57]: > 100 µM | TGI [58]: > 100 µM | TGI [59]: > 100 µM

O=C1Cc2c(-c3ccc(Cl)cc3)cc(-c3ccccc3)nc2-c2ccccc2N1
TGI [1]: 50.7 µM | TGI [2]: > 57.1 µM | TGI [3]: 20.3 µM | TGI [4]: > 42.5 µM | TGI [5]: 7.31 µM | TGI [6]: > 56.8 µM | TGI [7]: 26.4 µM | TGI [8]: > 100 µM | TGI [9]: > 81 µM | TGI [10]: 18.8 µM | TGI [11]: 10.7 µM | TGI [12]: 25.4 µM | TGI [13]: > 76.5 µM | TGI [14]: 48.9 µM | TGI [15]: 17.8 µM | TGI [16]: 4.92 µM | TGI [17]: > 44.8 µM | TGI [18]: 27.1 µM | TGI [19]: > 100 µM | TGI [20]: 33.8 µM | TGI [21]: 29.1 µM | TGI [22]: 11.6 µM | TGI [23]: 26.4 µM | TGI [24]: > 42.8 µM | TGI [25]: 23.2 µM | TGI [26]: 14.6 µM | TGI [27]: 12.9 µM | TGI [28]: 22.8 µM | TGI [29]: 14.8 µM | TGI [30]: 60.8 µM | TGI [31]: > 64 µM | TGI [32]: 53.3 µM | TGI [33]: > 63.3 µM | TGI [34]: 21 µM | TGI [35]: > 100 µM | TGI [36]: > 100 µM | TGI [37]: 34.8 µM | TGI [38]: 55.8 µM | TGI [39]: > 100 µM | TGI [40]: 26.6 µM | TGI [41]: > 58.9 µM | TGI [42]: 24.2 µM | TGI [43]: 19.4 µM | TGI [44]: 44.9 µM | TGI [45]: 25 µM | TGI [46]: 32.9 µM | TGI [47]: 20.1 µM | TGI [48]: > 61.4 µM | TGI [49]: 21.3 µM | TGI [50]: > 46 µM | TGI [51]: > 50.7 µM | TGI [52]: 6.67 µM | TGI [53]: 97.7 µM | TGI [54]: 28.3 µM | TGI [55]: > 100 µM | TGI [56]: 14.2 µM | TGI [57]: > 100 µM | TGI [58]: 15.3 µM | TGI [59]: 12.9 µM
